The conditions of data set [1]: cited from earlier work.
A short description of data set [2]: Dynamic vapor sorption (DVS) analysis with post-DVS XRPD. The class given is physicochemical.
Data set [3] in a line: Physical stability of MBDB salts at 40° C./75% RH. The class given is physicochemical. Here is the method:
During the screen, a single crystal Maleate 1 of sufficient size and quality was obtained from a vapor diffusion experiment with ethanol and hexane. The crystal structure is reported elsewhere but the data confirmed the anhydrous/unsolved nature of the material. […] Two new crystalline forms of MBDB Maleate were observed during the screening designated as MBDB Maleate 2 and MBDB Maleate 3 (FIG. 96, 97). Additional characterization of these samples was conducted to better understand the nature of the materials produced, as shown below. MBDB Maleate 2 was generated once from a cooling crystallization from dioxane. The proton nuclear magnetic resonance (NMR) spectrum was consistent with a monomaleate salt of MBDB and contained residual dioxane. Only a limited amount of material was recovered so the only additional characterization that could be completed was differential scanning calorimetry (DSC). The DSC thermogram appears consistent with an anhydrous/unsolvated form with a likely melt at 96° C. (FIG. 100). […] An attempt was made to reproduce Maleate 2 using the same conditions and seeds of Maleate 2. PXRD analysis of the recovered solids however was consistent with Maleate 1. MBDB Maleate 3 was isolated from an evaporation experiment involving chloroform and ethyl acetate. NMR analysis of the material was consistent with a mono-maleate salt of MBDB. Thermal analysis was consistent with an anhydrous/unsolvated material with a likely melting point of 73° C. (FIG. 101). […] No additional characterization was completed on this sample due to the limited amount of material that was recovered.

The nature of data set [4]: Solid-form stability of MBDB maleate forms (ball milling, drying, interconversion slurry). The class given is physicochemical. Conditions: ball milled. Here is the method:
During the screen, a single crystal Maleate 1 of sufficient size and quality was obtained from a vapor diffusion experiment with ethanol and hexane. The crystal structure is reported elsewhere but the data confirmed the anhydrous/unsolved nature of the material. […] Two new crystalline forms of MBDB Maleate were observed during the screening designated as MBDB Maleate 2 and MBDB Maleate 3 (FIG. 96, 97). Additional characterization of these samples was conducted to better understand the nature of the materials produced, as shown below. MBDB Maleate 2 was generated once from a cooling crystallization from dioxane. The proton nuclear magnetic resonance (NMR) spectrum was consistent with a monomaleate salt of MBDB and contained residual dioxane. Only a limited amount of material was recovered so the only additional characterization that could be completed was differential scanning calorimetry (DSC). The DSC thermogram appears consistent with an anhydrous/unsolvated form with a likely melt at 96° C. (FIG. 100). […] An attempt was made to reproduce Maleate 2 using the same conditions and seeds of Maleate 2. PXRD analysis of the recovered solids however was consistent with Maleate 1. MBDB Maleate 3 was isolated from an evaporation experiment involving chloroform and ethyl acetate. NMR analysis of the material was consistent with a mono-maleate salt of MBDB. […]

Regarding `CCNC(C)Cc1ccc2c(c1)OCO2` (stereo not drawn) [MDE, N-ethyl-3,4-methylenedioxyamphetamine], in data set [1] (after dosing), the “Reported time to achieve peak effects” value was 1 to 2 h. The “Oral dose for drug activity level Very Strong” value in data set [1] (oral) is not below 225 mg.

On to `CCC(Cc1ccc2c(c1)OCO2)NC.O=C(O)/C=C\C(=O)O` (stereo not drawn) [Maleate 1], for which the “Hygroscopicity by DVS” value in data set [2] (25° C., 5 to 95% RH) is reported as “minimal water sorption over RH range”. The DVS weight gain in data set [2] (at 95% RH, listed as MBDB Maleate Form1) is reported as 0.6% wt gain. Also, the “Hygroscopic?” value in data set [2] (based on moisture uptake at 95% observed during DVS analysis) is on record as “Slightly”. Further, in data set [3] (40° C./75% RH for 50 days), the “Physical stability by PXRD” value is “no change”. For the same compound, the “Physical Stability” value in data set [3] (40° C./75% RH overnight) is on record as “No change”; in data set [3] (after 1 day at 40° C./75% RH), “No visible change”. In data set [4], the “Stability to ball milling (recovered solids vs starting material)” value is reported as “stable under mechanical stressing”.

The values are drawn from patent US11958821B2, “Phenethylamine compounds salts, polymorphic forms and methods of use thereof” (Terran Biosciences Inc., priority 2021, dated 2024).
